What all share (format): in vivo
For data set [1], the system named is bulrush (Scirpus juncoides Roxb.). The data set can be described thus: Test Example 1: herbicidal effect on paddy field weeds before emergence. As to conditions: Dosage 5 kg/ha. Summed up:
(§1)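 Seeds of both weeds, still ungerminated, in soil pots held under paddy conditions received a set dose of test solution as soil treatment. After twenty-one days, control relative to untreated pots was calculated and rated on a scoring scale.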

Data set [2] deals with barnyard grass (Echinochloa crus-galli Beauv.). Described as above. As to conditions: Dosage 5 kg/ha. Put shortly: as §1
For data set [3], the system named is bulrush (Scirpus juncoides Roxb.). The data set can be described thus: Test Example 2: herbicidal effect on paddy field weeds after emergence. As to conditions: Dosage 5 kg/ha; one-leaved stage; 21 days after treatment. Summed up:
(§2)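 Weeds in flooded paddy-soil pots were grown to the one-leaved stage, then the soil was treated with the compound solution at a set dosage.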

Data set [4] relates to barnyard grass (Echinochloa crus-galli Beauv.). Described as above. As to conditions: Dosage 5 kg/ha; one-leaved stage; 21 days after treatment. Put shortly:
as §2

Data set [5] deals with monochoria (Monochoria vaginalis Presl). The data set is described as above. The following applies: Dosage 5 kg/ha; one-leaved stage; 21 days after treatment. Put shortly: as §2
Data set [6] has as its system cleavers (Galium aparine L.), Ga. The data set can be described thus: Test Example 4: herbicidal effect on upland weeds after emergence. As to conditions: dosage 5 kg/ha; sprayed after emergence; judged 14 days after treatment. Put shortly: (§3)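 Weeds and soybean grown in soil-filled vats to set leaf stages, then sprayed post-emergence with the compound at a prescribed concentration. Weed-killing rate and crop phytotoxicity judged 14 days after treatment.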

Data set [7] concerns bird's eye speedwell (Veronica persica Poir.), Vp. Described as above. As to conditions: dosage 5 kg/ha; sprayed after emergence; judged 14 days after treatment. Summed up:
as §3

For data set [8], the system named is velvetleaf (Abutilon theophtasti L.), At. Described as above. As to conditions: dosage 5 kg/ha; sprayed after emergence; judged 14 days after treatment. Put shortly:
as §3

For data set [9], the system named is cocklebur (Xanthium strumarium L.), Xs. Described as above. The following applies: dosage 5 kg/ha; sprayed after emergence; judged 14 days after treatment. Summed up: as §3
Data set [10] concerns forxtail grass (Alopecurus aequalis var. amurensis Ohwi), Am. The description is as above. As to conditions: dosage 5 kg/ha; sprayed after emergence; judged 14 days after treatment. Put shortly: as §3
Data set [11] concerns barnyard grass (Echinochloa crus-galli Beauv.), Ec. The description is as above. The following applies: dosage 5 kg/ha; sprayed after emergence; judged 14 days after treatment. Summed up: as §3
For a further data set, the system named is soybean plant. In words: Test Example 4: phytotoxicity to upland crop plants, treatment after emergence. The following applies: dosage 5 kg/ha, sprayed after emergence, judged 14 days after treatment. Summed up: (§4)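 Upland weeds and crop plants (soybean, wheat) are grown from seed in soil until they reach given leaf stages, then treated by spraying with the compound-containing agent; effects are judged two weeks later.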

In the next data set the test system is wheat. The data set is described as above. As to conditions: dosage 5 kg/ha, sprayed after emergence, judged 14 days after treatment. Put shortly:
as §4

The subject of a further data set is wheat (Wh). The data set can be described thus: Test Example 3: phytotoxicity to upland crop plants, treatment before emergence. As to conditions: dosage 5 kg/ha. Summed up:
(§5)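 Pre-emergence spray of a liquid preparation at a prescribed compound concentration. Soybean and wheat injury was scored against a phytotoxicity criterion 14 days after treatment, alongside weed control.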

A further data set has as its system soybean plant (So). Described as above. The following applies: dosage 5 kg/ha. Put shortly:
as §5

Data set [12] deals with cleavers (Galium aparine L.), Ga. In words: Test Example 3: herbicidal effect on upland weeds before emergence. The following applies: dosage 5 kg/ha. Summed up:
(§6)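 Herbicidal activity was rated from kill rate determined 14 days post-spray, the compound having been applied pre-emergence as a liquid agent.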

For data set [13], the system named is bird's eye speedwell (Veronica persica Poir.), Vp. The description is as above. The following applies: dosage 5 kg/ha. Put shortly:
as §6

In data set [14] the test system is velvetleaf (Abutilon theophtasti L.), At. The data set is described as above. The following applies: dosage 5 kg/ha. Put shortly:
as §6

Data set [15] deals with cocklebur (Xanthium strumarium L.), Xs. The description is as above. The following applies: dosage 5 kg/ha. Put shortly: as §6
Data set [16] has as its system forxtail grass (Alopecurus aequalis var. amurensis Ohwi), Am. The data set is described as above. As to conditions: foxtail grass, dosage 5 kg/ha. Put shortly:
as §6

In data set [17] the test system is barnyard grass (Echinochloa crus-galli Beauv.), Ec. The data set is described as above. The following applies: dosage 5 kg/ha. Summed up:
as §6

On to `CCCNC(=O)c1nc2ncccc2cc1C(=O)Nc1cccc(Cl)c1C` [compound 375], for which, in data set [1], the “Pre-emergence treatment Bulrush (herbicidal effect)” value (“Pre-emergence treatment Bulrush” below) was 5 (Weed-killing rate is 100%.). For the same molecule, in data set [2], the “Pre-emergence treatment Barnyard grass (herbicidal effect)” value (from here on “Pre-emergence treatment Barnyard grass”) is recorded as 5 (Weed-killing rate is 100%.). Also, the “Post-emergence treatment Bulrush (herbicidal effect)” value (from here on “Post-emergence treatment Bulrush”) in data set [3] is recorded as 5 (Weed-killing rate is 100%.). Besides, the “Post-emergence treatment Barnyard grass (herbicidal effect)” value (“Post-emergence treatment Barnyard grass” below) in data set [4] was 5 (Weed-killing rate is 100%.). For the same molecule, the “Post-emergence treatment Monochoria (herbicidal effect)” value (from here on “Post-emergence treatment Monochoria”) in data set [5] was 5 (Weed-killing rate is 100%.). In addition, the “Herbicidal effect Ga” value in data set [6] and in [12] was 5 (Weed-killing rate is 100%.) in each case. Moreover, the “Herbicidal effect Vp” value in data set [7] and in data set [13] was 5 (Weed-killing rate is 100%.) throughout. Also, the “Herbicidal effect At” value in [8] and in data set [14] was 5 (Weed-killing rate is 100%.) each time. Further, the “Herbicidal effect Xs” value in data set [9] and in [15] was 5 (Weed-killing rate is 100%.) throughout. The “Herbicidal effect Am” value in [10] and in data set [16] was 5 (Weed-killing rate is 100%.) throughout. Besides, the “Herbicidal effect Ec” value in data set [11] and in data set [17] was 5 (Weed-killing rate is 100%.) throughout. For the same molecule, the “Phytotoxicity So” value in the data set on soybean plant is given as 4 (Crop-killing rate is 90-99%.); with soybean plant (So) it was 3 (Crop-killing rate is 70-89%.). In addition, the “Phytotoxicity Wh” value in the data set on wheat was 4 (Crop-killing rate is 90-99%.); with wheat (Wh), 3 (Crop-killing rate is 70-89%.).

For the molecule `CCCNC(=O)c1nc2c(cc1C(=O)Nc1c(CC)ccc(Cl)c1CC)CCCO2` [compound 414], the “Pre-emergence treatment Bulrush” value in [1] is listed as 5 (Weed-killing rate is 100%.). For the same molecule, the “Pre-emergence treatment Barnyard grass” value in data set [2] is on record as 5 (Weed-killing rate is 100%.). The “Post-emergence treatment Bulrush” value in data set [3] is reported as 5 (Weed-killing rate is 100%.). In data set [4], the “Post-emergence treatment Barnyard grass” value is reported as 5 (Weed-killing rate is 100%.). Further, the “Post-emergence treatment Monochoria” value in data set [5] is 5 (Weed-killing rate is 100%.). For the same molecule, the “Herbicidal effect Ga” value in data set [6] and in [12] was 5 (Weed-killing rate is 100%.) each time. The “Herbicidal effect Vp” value in data set [7] and in [13] was 5 (Weed-killing rate is 100%.) each time. Besides, the “Herbicidal effect At” value in data set [8] and in data set [14] was 5 (Weed-killing rate is 100%.) each time. Also, the “Herbicidal effect Xs” value in [9] and in data set [15] was 5 (Weed-killing rate is 100%.) each time. Moreover, the “Herbicidal effect Am” value in data set [10] and in data set [16] was 5 (Weed-killing rate is 100%.) throughout. In addition, the “Herbicidal effect Ec” value in [11] and in [17] was 5 (Weed-killing rate is 100%.) each time. Further, the “Phytotoxicity So” value in the data set with soybean plant and with soybean plant (So) was 4 (Crop-killing rate is 90-99%.) each time. Moreover, the “Phytotoxicity Wh” value in the data set with wheat and in the data set with wheat (Wh) was 5 (Crop-killing rate is 100%.) throughout.

As to `CCc1ccc(Cl)c(CC)c1NC(=O)c1cc2c(nc1C(=O)NC1CCCC1)OCCC2` [compound 423], in data set [1], the “Pre-emergence treatment Bulrush” value is 5 (Weed-killing rate is 100%.). In addition, in data set [2], the “Pre-emergence treatment Barnyard grass” value is on record as 5 (Weed-killing rate is 100%.). In addition, in data set [3], the “Post-emergence treatment Bulrush” value was 5 (Weed-killing rate is 100%.). Moreover, the “Post-emergence treatment Barnyard grass” value in data set [4] is recorded as 5 (Weed-killing rate is 100%.). The “Post-emergence treatment Monochoria” value in data set [5] is 5 (Weed-killing rate is 100%.). Besides, the “Herbicidal effect Ga” value in [6] and in [12] was 5 (Weed-killing rate is 100%.) each time. The “Herbicidal effect Vp” value in [7] and in data set [13] was 5 (Weed-killing rate is 100%.) in each case. The “Herbicidal effect At” value in [8] and in [14] was 5 (Weed-killing rate is 100%.) throughout. In addition, the “Herbicidal effect Xs” value in data set [9] and in [15] was 5 (Weed-killing rate is 100%.) in each case. For the same molecule, the “Herbicidal effect Am” value in data set [10] and in data set [16] was 5 (Weed-killing rate is 100%.) in each case. For the same molecule, the “Herbicidal effect Ec” value in data set [11] and in data set [17] was 5 (Weed-killing rate is 100%.) throughout. In addition, the “Phytotoxicity So” value in the data set with soybean plant and in the data set on soybean plant (So) was 4 (Crop-killing rate is 90-99%.) throughout. In addition, the “Phytotoxicity Wh” value in the data set on wheat and with wheat (Wh) was 5 (Crop-killing rate is 100%.) throughout.

As for `Cc1c(Cl)cccc1NC(=O)c1cc2c(nc1C(=O)NCC(C)C)OCCC2` [compound 431], the “Pre-emergence treatment Bulrush” value in [1] is 5 (Weed-killing rate is 100%.). In addition, the “Pre-emergence treatment Barnyard grass” value in data set [2] was 5 (Weed-killing rate is 100%.). Moreover, the “Post-emergence treatment Bulrush” value in data set [3] is given as 5 (Weed-killing rate is 100%.). In data set [4], the “Post-emergence treatment Barnyard grass” value is on record as 5 (Weed-killing rate is 100%.). The “Post-emergence treatment Monochoria” value in data set [5] is recorded as 5 (Weed-killing rate is 100%.). Further, the “Herbicidal effect Ga” value in data set [6] and in [12] was 4 (Weed-killing rate is 90-99%.) each time. The “Herbicidal effect Vp” value in data set [7] and in data set [13] was 5 (Weed-killing rate is 100%.) each time. Moreover, the “Herbicidal effect At” value in data set [8] and in data set [14] was 5 (Weed-killing rate is 100%.) each time. The “Herbicidal effect Xs” value in [9] and in data set [15] was 4 (Weed-killing rate is 90-99%.) throughout. The “Herbicidal effect Am” value in data set [10] and in [16] was 4 (Weed-killing rate is 90-99%.) in each case. In addition, the “Herbicidal effect Ec” value is 4 (Weed-killing rate is 90-99%.) in data set [11] and 5 (Weed-killing rate is 100%.) in [17]. The “Phytotoxicity So” value with soybean plant and in the data set with soybean plant (So) was 3 (Crop-killing rate is 70-89%.) throughout. Also, the “Phytotoxicity Wh” value in the data set with wheat is reported as 4 (Crop-killing rate is 90-99%.); in the data set with wheat (Wh) it was 3 (Crop-killing rate is 70-89%.).

These data come from patent US6444617B1, “Fused-heterocycle dicarboxylic acid diamide derivatives or salts thereof, herbicide and usage thereof” (Nihon Nohyaku Co., Ltd., priority 1998, dated 2002).
